# From PubChem BioAssay (NCI)
#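 Assay format: 96-well plates, 48-hour exposure. TGI: concentration producing complete growth inhibition.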
# Assays:
# Experiment in all cases: inhibition of tumour cell growth, NCI panel, 48 h
# UO-31 renal = test system: UO-31 renal
# SNB-78 CNS = test system: SNB-78 CNS
# HOP-92 NSCLC = test system: HOP-92 NSCLC
# MOLT-4 leukemia = test system: MOLT-4 leukemia
# SW-620 colon = test system: SW-620 colon
# NCI-H226 lung = test system: NCI-H226 lung
# LOX IMVI melanoma = test system: LOX IMVI melanoma
# 786-0 renal = test system: 786-0 renal
# DLD-1 colon = test system: DLD-1 colon
# SNB-19 CNS = test system: SNB-19 CNS
# SN12C renal = test system: SN12C renal
# KM12 colon = test system: KM12 colon
# SF-295 CNS = test system: SF-295 CNS
# HCC-2998 colon = test system: HCC-2998 colon
# OVCAR-5 ovarian = test system: OVCAR-5 ovarian
# HT29 colon = test system: HT29 colon
# TK-10 renal = test system: TK-10 renal
# M14 melanoma = test system: M14 melanoma
# A498 renal = test system: A498 renal
# U251 CNS = test system: U251 CNS
# HL-60(TB) leukemia = test system: HL-60(TB) leukemia
# SNB-75 CNS = test system: SNB-75 CNS
# K-562 leukemia = test system: K-562 leukemia
# OVCAR-8 ovarian = test system: OVCAR-8 ovarian
# UACC-62 melanoma = test system: UACC-62 melanoma
# KM20L2 colon = test system: KM20L2 colon
# SK-MEL-5 melanoma = test system: SK-MEL-5 melanoma
# NCI-H23 lung = test system: NCI-H23 lung
# SF-268 CNS = test system: SF-268 CNS
# RPMI-8226 leukemia = test system: RPMI-8226 leukemia
# NCI-H522 lung = test system: NCI-H522 lung
# COLO 205 colon = test system: COLO 205 colon
# EKVX NSCLC = test system: EKVX NSCLC
# SK-OV-3 ovarian = test system: SK-OV-3 ovarian
# CCRF-CEM leukemia = test system: CCRF-CEM leukemia
# HCT-15 colon = test system: HCT-15 colon
# NCI-H460 lung = test system: NCI-H460 lung
# DMS 114 small cell lung = test system: DMS 114 small cell lung
# OVCAR-3 ovarian = test system: OVCAR-3 ovarian
# M19-MEL melanoma = test system: M19-MEL melanoma
# OVCAR-4 ovarian = test system: OVCAR-4 ovarian
# HOP-62 NSCLC = test system: HOP-62 NSCLC
# A549 NSCLC = test system: A549 NSCLC
# SK-MEL-28 melanoma = test system: SK-MEL-28 melanoma
# SF-539 CNS = test system: SF-539 CNS
# CAKI-1 renal = test system: CAKI-1 renal
# ACHN renal = test system: ACHN renal
# DMS 273 small cell lung = test system: DMS 273 small cell lung
# LXFL 529 NSCLC = test system: LXFL 529 NSCLC
# UACC-257 melanoma = test system: UACC-257 melanoma
# XF 498 CNS = test system: XF 498 CNS
# SK-MEL-2 melanoma = test system: SK-MEL-2 melanoma
# HOP-18 NSCLC = test system: HOP-18 NSCLC
# IGROV1 ovarian = test system: IGROV1 ovarian
# RXF 393 renal = test system: RXF 393 renal
# SR leukemia = test system: SR leukemia
# MALME-3M melanoma = test system: MALME-3M melanoma
# HCT-116 colon = test system: HCT-116 colon
structure (smiles),measurement,setting,value
Nc1c(C(=O)Nc2ccccc2)[n+]([O-])c2ccccc2[n+]1[O-],TGI,UO-31 renal,42 µM
same,TGI,SNB-78 CNS,40.4 µM
same,TGI,HOP-92 NSCLC,32.1 µM
same,TGI,MOLT-4 leukemia,> 100 µM
same,TGI,SW-620 colon,38.3 µM
same,TGI,NCI-H226 lung,76.3 µM
same,TGI,LOX IMVI melanoma,28.6 µM
same,TGI,786-0 renal,27.1 µM
same,TGI,DLD-1 colon,37.6 µM
same,TGI,SNB-19 CNS,31 µM
same,TGI,SN12C renal,31.4 µM
same,TGI,KM12 colon,30.4 µM
same,TGI,SF-295 CNS,41.1 µM
same,TGI,HCC-2998 colon,32.2 µM
same,TGI,OVCAR-5 ovarian,37.5 µM
same,TGI,HT29 colon,37 µM
same,TGI,TK-10 renal,42.2 µM
same,TGI,M14 melanoma,32.8 µM
same,TGI,A498 renal,31 µM
same,TGI,U251 CNS,26.3 µM
same,TGI,HL-60(TB) leukemia,90.8 µM
same,TGI,SNB-75 CNS,34 µM
same,TGI,K-562 leukemia,> 100 µM
same,TGI,OVCAR-8 ovarian,> 100 µM
same,TGI,UACC-62 melanoma,22.6 µM
same,TGI,KM20L2 colon,34.7 µM
same,TGI,SK-MEL-5 melanoma,29.1 µM
same,TGI,NCI-H23 lung,28.8 µM
same,TGI,SF-268 CNS,> 100 µM
same,TGI,RPMI-8226 leukemia,> 100 µM
same,TGI,NCI-H522 lung,4.4 µM
same,TGI,COLO 205 colon,29.3 µM
same,TGI,EKVX NSCLC,56.9 µM
same,TGI,SK-OV-3 ovarian,> 100 µM
same,TGI,CCRF-CEM leukemia,> 100 µM
same,TGI,HCT-15 colon,28.2 µM
same,TGI,NCI-H460 lung,35.7 µM
same,TGI,DMS 114 small cell lung,26.8 µM
same,TGI,OVCAR-3 ovarian,31.7 µM
same,TGI,M19-MEL melanoma,32.2 µM
same,TGI,OVCAR-4 ovarian,33.5 µM
same,TGI,HOP-62 NSCLC,34.4 µM
same,TGI,A549 NSCLC,68 µM
same,TGI,SK-MEL-28 melanoma,34.9 µM
same,TGI,SF-539 CNS,37.3 µM
same,TGI,CAKI-1 renal,16.8 µM
same,TGI,ACHN renal,30.1 µM
same,TGI,DMS 273 small cell lung,46.9 µM
same,TGI,LXFL 529 NSCLC,28.1 µM
same,TGI,UACC-257 melanoma,59.4 µM
same,TGI,XF 498 CNS,32.6 µM
same,TGI,SK-MEL-2 melanoma,33.5 µM
same,TGI,HOP-18 NSCLC,26.3 µM
same,TGI,IGROV1 ovarian,44.8 µM
Cc1cc(S(=O)(=O)O)c(NC(=O)C(=O)C2C=CCS2(=O)=O)cc1Cl (configuration not stated),TGI,UO-31 renal,> 100 µM
same,TGI,RXF 393 renal,> 100 µM
same,TGI,SNB-78 CNS,> 100 µM
same,TGI,HOP-92 NSCLC,> 100 µM
same,TGI,MOLT-4 leukemia,> 100 µM
same,TGI,SW-620 colon,> 100 µM
same,TGI,NCI-H226 lung,> 100 µM
same,TGI,LOX IMVI melanoma,> 100 µM
same,TGI,786-0 renal,> 100 µM
same,TGI,DLD-1 colon,> 100 µM
same,TGI,SNB-19 CNS,> 100 µM
same,TGI,SN12C renal,> 100 µM
same,TGI,KM12 colon,> 100 µM
same,TGI,SF-295 CNS,> 100 µM
same,TGI,HCC-2998 colon,> 100 µM
same,TGI,OVCAR-5 ovarian,> 100 µM
same,TGI,HT29 colon,> 100 µM
same,TGI,TK-10 renal,> 100 µM
same,TGI,M14 melanoma,> 100 µM
same,TGI,A498 renal,> 100 µM
same,TGI,U251 CNS,> 100 µM
same,TGI,HL-60(TB) leukemia,> 100 µM
same,TGI,SNB-75 CNS,> 100 µM
same,TGI,K-562 leukemia,> 100 µM
same,TGI,OVCAR-8 ovarian,> 100 µM
same,TGI,UACC-62 melanoma,> 100 µM
same,TGI,KM20L2 colon,> 100 µM
same,TGI,SK-MEL-5 melanoma,> 100 µM
same,TGI,NCI-H23 lung,> 100 µM
same,TGI,SF-268 CNS,> 100 µM
same,TGI,RPMI-8226 leukemia,> 100 µM
same,TGI,SR leukemia,> 100 µM
same,TGI,NCI-H522 lung,> 100 µM
same,TGI,COLO 205 colon,> 100 µM
same,TGI,EKVX NSCLC,> 100 µM
same,TGI,MALME-3M melanoma,> 100 µM
same,TGI,SK-OV-3 ovarian,> 100 µM
same,TGI,CCRF-CEM leukemia,> 100 µM
same,TGI,HCT-15 colon,> 100 µM
same,TGI,NCI-H460 lung,> 100 µM
same,TGI,DMS 114 small cell lung,> 100 µM
same,TGI,OVCAR-3 ovarian,> 100 µM
same,TGI,M19-MEL melanoma,> 100 µM
same,TGI,HCT-116 colon,> 100 µM
same,TGI,OVCAR-4 ovarian,> 100 µM
same,TGI,HOP-62 NSCLC,> 100 µM
same,TGI,A549 NSCLC,> 100 µM
same,TGI,SK-MEL-28 melanoma,> 100 µM
same,TGI,SF-539 CNS,> 100 µM
same,TGI,CAKI-1 renal,> 100 µM
same,TGI,ACHN renal,> 100 µM
same,TGI,DMS 273 small cell lung,> 100 µM
same,TGI,LXFL 529 NSCLC,> 100 µM
same,TGI,UACC-257 melanoma,> 100 µM
same,TGI,XF 498 CNS,> 100 µM
same,TGI,SK-MEL-2 melanoma,> 100 µM
same,TGI,HOP-18 NSCLC,> 100 µM
same,TGI,IGROV1 ovarian,> 100 µM
